Numbers after ± are expanded uncertainties.
Key:
[1] = Molar enthalpy of transition or fusion; conditions: Crystal; DSC
[2] = Crystal; DTA
[3] = molar heat capacity at constant pressure; conditions: 101.33 kPa, Small sample (50 mg) DSC

[Br-].[Br-].[Br-].[Pr+3] [praseodymium(III) bromide]
Conditions | Molar enthalpy of transition or fusion [kJ/mol] | Normal melting temperature [°C]
[1] | 46.4 ± 1.5 | –
[2] | – | 687 ± 1

molar heat capacity at constant pressure [J/K/mol], [3]
Conditions | Crystal | Liquid
298.15 K | 105.37 ± 7.6 | –
300 K | 105.39 ± 7.6 | –
331 K | 105.87 ± 7.6 | –
400 K | 106.93 ± 7.7 | –
500 K | 108.46 ± 7.8 | –
600 K | 109.99 ± 7.9 | –
700 K | 111.52 ± 8 | –
800 K | 113.05 ± 8.1 | –
900 K | 114.58 ± 8.2 | –
960 K | 115.5 ± 8.3 | 141.39 ± 10
1000 K | – | 141.39 ± 10
1065 K | – | 141.39 ± 10
1100 K | – | 141.39 ± 10
1191 K | – | 141.39 ± 10
1200 K | – | 141.39 ± 10
1300 K | – | 141.39 ± 10

Reference: the NIST ThermoML archive (doi:10.1021/je101139k)
